Reference: patent publication US20200297015A1, “TRYPTOPHAN DERIVATIVES AS SWEETENERS” (CHROMOCELL CORPORATION, priority 2017, published 2020)

What was measured:
sweet taste = settings: Optimising Sweet Taste in Foods, 2006; cited from earlier work
[1] = tested on: sweetness intensity in humans; experiment: Discriminative sensory evaluation of sweetness intensity, two-alternative forced choice sip and spit (2AFC) in water; assay type: in vivo, human
Procedure: The test compounds were evaluated for sweetness intensity in a aqueous solution in humans using a two-alternative forced choice “sip and spit” method (2AFC).
Preparation of Samples for Sensory Taste Tests: • Control Sample: Sucrose (various levels) • Variant Sample: Compound 1, 5 and 8
The control samples for the discrimination taste test were prepared by dissolving the sucrose directly in water at the indicated test concentrations Variant sample containing Compound 1 was prepared by dissolving Compound i directly in water at the desired concentration. Variant sample containing Compound 5 and 8 were prepared by dissolving the respective sodium salts of the compounds directly in water (refer to Example 4).
The 2AFC test used for compound evaluation was a double blinded and randomized test where taste panelists (n≥12) evaluate a pair of sweetened solutions at a time—one sample is sweetened with sucrose (i.e. control) while the other sample is sweetened with the test compound (i.e. variant). Panelists were instructed not to eat or drink (except water) for at least 1 h before the test. During the test, panelists were instructed to sip each sample, swirl it around their mouth and then expectorate. After tasting each sample in the pair, panelists were instructed to record the sample that is “sweeter” in taste. Panelists cleansed their palates by rinsing with water, eating a cracker and waiting for an interval of about 5 minutes. All samples were tasted at ambient temperatures. Data were analyzed using binomial probabilities.

[2] = tested on: perception of sweet taste in humans; experiment: Descriptive Analysis (DA) sensory evaluation by trained panel, aqueous matrix; assay type: in vivo, human; settings: for Bitter @ 18 sec / Bitter @ 1 min / Bitter @ 1 min 30 s / Bitter @2 min / Bitter @3 min / Sweet @ 18 sec / Sweet @ 1 min / Sweet @ 1 min 30 s / Sweet @ 2 min: intensity on 15 cm scale; for Bitter @ 18 sec / Bitter @ 1 min / Bitter @ 1 min 30 s / Bitter @2 min / Bitter @3 min / Sweet @ 18 sec / Sweet @ 1 min / Sweet @ 1 min 30 s / Sweet @ 2 min / Sweet AT: in water, 500 ppm Rebaudioside M (control), 1500 ppm Compound 5 (variant), n≥12; for Sweet AT: sweet appearance time
Procedure: The effect of the test compound on the perception of sweet taste in an aqueous matrix was evaluated using a descriptive analysis methodology with a group of trained panelists, as follows.
Preparation of Samples for Sensory Taste Tests: • Control Sample: 500 ppm Rebaudioside M • Variant Sample: 1500 ppm Compound 5 Samples for the descriptive analysis taste test were prepared by dissolving, both the control and variant samples, directly in water at the desired test concentrations.
The taste test panelists used in Example I were selected using a sensory acuity screening program and then trained in descriptive analysis taste testing. Candidate panelists were recruited, with prescreening and personal interviews, and were assessed for their ability to detect, recognize and differentiate basic taste attributes or mixtures thereof as part of a standardized acuity test. These candidate panelists were also assessed for their innate ability to identify flavors, and to rank on intensity scales. Other senses such as smell and vision were also included as part of the assessment. Candidates also were screened for their ability to use the language to describe and articulate ideas.
The method was performed as a double blinded, randomized test, where trained Descriptive Analysis taste panelists (n≥12) profiled the maximum intensity perceived at 18 seconds, of the control sample and the variant sample for the following 3 attributes; sweet, bitter and sweet appearance time. In addition to the maximum intensity, the panelists continued to assess sweet and bitter intensity (at 1 min, 1.5 min, 2 min, and 3 min), to generate a discontinuous time scale Intensity profile (TSI) of sweet and bitter percepts to gain an understanding of the taste profile of the control and variant samples. Each panelist scored sweetness intensity on a 15 cm scale, with the control and variant sample being determined to be iso-sweet by ANOVA at 18 seconds.

[3] = Solubility: concentrated stock by conversion to sodium salt form; assay type: physicochemical; settings: for concentrated stock compared to the free base form: sodium salt form vs free base form; for concentrated solution prepared: sodium salt form, with 5.5% by weight sodium hydroxide in de-ionized water, vortex and sonication 30-120 s
Excerpt: Compounds 5 and 8 have been prepared at an increased concentration for commercial applications by converting them into their respective sodium salt forms. The process of converting to a salt form was obtained by dissolving the Compounds in water and adding a set quantity of sodium hydroxide or potassium hydroxide solution. A concentrated solution of 30% by weight of Compound 5 and 8 has been prepared by this method. This has been achieved by combining 30%, by weight, of Compound 5 or Compound 8 with 5.5%, by weight, of sodium hydroxide in de-ionized water. The mixture is subjected to intermittent vortex and sonication for a duration of 30-120 s. This process achieves a 300 times concentrated stock compared to the free base form of Compound 5 and 8, thereby enabling delivery of an increased concentration of the compounds in a model beverage/matrix. The sodium/potassium salt can increase solubility by changing neutral zwitterion to more hydrophilic negative charged anion.

[4] = tested on: sweetness intensity (expert tasters); experiment: Reference scaling of sweetness intensity against sucrose references by expert tasters; assay type: in vivo, human; settings: for Sweetness Intensity (avg): @ 1000 ppm, ranked against sucrose references (5%, 7.5%, 10%), n>5
Procedure: (§1) Preparation of Samples for Taste Tests: • Control Sample: 250 ppm, 500 ppm and 1000 ppm of D-Tryptophan • Variant Sample: 250 ppm, 500 ppm and 1000 ppm of Compound 5 Samples for the taste test were prepared by dissolving, both the control and variant samples, directly in water at the desired test concentrations.
In another test, expert tasters (n>5) also tasted Compound 5 and Control Samples to a set of sucrose references (5%, 7.5%, 10%) and ranked the Test and Control samples for sweetness intensity compared to sucrose references. At the same concentration, Compound 5 achieves higher (close to 2 fold) potency compared to Control compound.

[5] = tested on: sweetness intensity (expert tasters); experiment: Sweetness potency comparison vs D-Tryptophan, paired comparison by expert tasters; assay type: in vivo, human; settings: in water, n>5
Procedure: The sweetness potency of the test compound was compared D-Tryptophan to understand potency differences between the test compound and non-methylated variants of D-tryptophan.
as §1
Expert tasters (n>5) tasted the control and test samples in a blinded experiment and assessed sweetness intensity (at the same concentration) via paired comparison. Each taster evaluated a pair of sweetened solutions at a time—one sample is sweetened with Control compound (i.e. control) while the other sample is sweetened with the test compound (i.e. variant). After tasting each sample in the pair, tasters were instructed to record the sample that is “sweeter” in taste. All samples were tasted at ambient temperatures.

Compound | Bitter @ 18 sec [2] | Bitter @ 1 min [2] | Bitter @ 1 min 30 s [2] | Bitter @2 min [2] | Bitter @3 min [2] | Sweet @ 18 sec [2] | Sweet @ 1 min [2] | Sweet @ 1 min 30 s [2] | Sweet @ 2 min [2] | Sweet AT [2] | concentrated stock compared to the free base form [3] | concentrated solution prepared [3] | Sweetness Intensity (avg) [4] | also measured
N[C@H](Cc1c[nH]c2cc(Cl)ccc12)C(=O)O [6-chloro-D-tryptophan] |  |  |  |  |  |  |  |  |  |  |  |  |  | sweeter than sucrose (sweet taste): 1000 times
Cc1cccc2[nH]cc(CC(N)C(=O)O)c12 (centres unmarked) [Compound 1, 2-amino-3-(4-methyl-1H-indol-3-yl)propanoic acid] |  |  |  |  |  |  |  |  |  |  |  |  |  | Number picking Variant ([1]; Compound 1 @ 1000 ppm vs 10% Sucrose, in water, Total Number 38): 25
Cc1ccc2[nH]cc(C[C@@H](N)C(=O)O)c2c1 [Compound 5, (R)-2-amino-3-(5-methyl-1H-indol-3-yl)propanoic acid] | 2.2 | 1.2 | 0.5 | 0.1 | 0.1 | 10.8 | 6.5 | 4.6 | 3 | 4.8 | 300 times | 30 % by weight | 9.25% Sucrose equivalent | lingering effects, sweet and bitter, as compared to the Rebaudioside M sample ([2]; by ANOVA, at multiple time points, 1500 ppm Compound 5 vs 500 ppm Rebaudioside M): significantly less; potency compared to Control compound ([4]; at the same concentration, Control = D-Tryptophan): ~2 fold; % picking Test as “sweeter” ([5]; Compound 5 @ 250 ppm vs Control (D-Tryptophan) @ 250 ppm): 100%; % picking Test as “sweeter” ([5]; Compound 5 @ 500 ppm vs Control (D-Tryptophan) @ 500 ppm): 100%; % picking Test as “sweeter” ([5]; Compound 5 @ 1000 ppm vs Control (D-Tryptophan) @ 1000 ppm): 100%; Number picking Variant ([1]; Compound 5 @ 2000 ppm (sodium salt dissolved in water) vs 12% Sucrose, Total Number 38): 26
Cc1[nH]c2ccccc2c1C[C@@H](N)C(=O)O [Compound 8, (R)-2-amino-3-(2-methyl-1H-indol-3-yl)propanoic acid] |  |  |  |  |  |  |  |  |  |  | 300 times | 30 % by weight |  | Number picking Variant ([1]; Compound 8 @ 3000 ppm (sodium salt dissolved in water) vs 8% Sucrose, Total Number 20): 11
N[C@H](Cc1c[nH]c2ccccc12)C(=O)O [Control, D-Tryptophan, reference compound] |  |  |  |  |  |  |  |  |  |  |  |  | 5.83% Sucrose equivalent | 
C=C1C[C@@]23CC[C@H]4[C@@](C)(CCC[C@@]4(C)C(=O)O[C@@H]4O[C@H](CO)[C@@H](O)[C@H](O[C@@H]5O[C@H](CO)[C@@H](O)[C@H](O)[C@H]5O)[C@H]4O[C@@H]4O[C@H](CO)[C@@H](O)[C@H](O)[C@H]4O)[C@@H]2CC[C@]1(O[C@@H]1O[C@H](CO)[C@@H](O)[C@H](O[C@@H]2O[C@H](CO)[C@@H](O)[C@H](O)[C@H]2O)[C@H]1O[C@@H]1O[C@H](CO)[C@@H](O)[C@H](O)[C@H]1O)C3 [Rebaudioside M, reference compound] | 3.3 | 2.2 | 1.4 | 0.7 | 0.3 | 10.7 | 7.2 | 5.3 | 3.6 | 5.9 |  |  |  | 
